Test results: article PMC11582070, “Template-assisted covalent modification underlies activity of covalent molecular glues” (Nature Chemical Biology, 2023)

Key:
DCAF16 [1] = biological target: T1, DCAF16 (Homo sapiens, UniProt O60885+Q9NXF7); assay: intact protein MS ([…] adduct alone, […] with BRD4BD2; none with C58S); TR-FRET; type: binding
T1 construct: full length, in complex with DDB1ΔB; with BRD4 BD2 (template), DDB1ΔB

DCAF16 [2] = biological target: T1, DCAF16; assay: intact protein MS; TR-FRET; type: binding

With Cc1sc2c(c1C)C(c1ccc(/C=C/C=O)cc1)=N[C@@H](CC(=O)OC(C)(C)C)c1nnc(C)n1-2 [compound 2, TMX1] the “intact protein MS (8% adduct alone, 50% with BRD4BD2; none with C58S); TR-FRET” value (DCAF16 [1]) was “By intact mass spectrometry, the DCAF16 C58S mutant completely eliminated DCAF16–TMX1 adduct formation”.
For C=CC(=O)Nc1ccc(C2=N[C@@H](CC(=O)OC(C)(C)C)c3nnc(C)n3-c3sc(C)c(C)c32)cc1 [compound 3, MMH1], the “intact protein MS; TR-FRET” value (DCAF16 [2]) was “DCAF16 intact mass spectrometry experiments on MMH1 and MMH2 and found similar template-assisted covalent modifications”.
